Experimental data as given in patent US7166581B1, “Treatment of chemotherapeutic agent and antiviral agent toxicity with acylated pyrimidine nucleosides” (Wellstat Therapeutics Corporation, priority 1987, dated 2007).

What was measured:
[1] = system: hematopoietic system (5-FU toxicity); assay: TAU dose-response on hematopoietic recovery after 5-FU (Example 2); format: in vivo, female Balb/C mice; design: Marrow: unit not given here; settings: for HCT (11d): eleven days after 5-FU
Protocol: Seventy female Balb/C mice weighing approximately twenty grams were each given an i.p. injection of 5-FU (150 mg/kg) at 1:00 p.m. on the initial day of the study. These animals were then divided into five different treatment groups: control (water), and oral TAU at doses of 100, 250, 500, and 1,000 mg/kg/treatment. The test compounds were then given at 3:00, 5:00, 7:30, and 10:00 p.m. on the day of 5-FU administration; at 9:00 a.m., 11:00 a.m., and 1:00, 3:00, 6:00, and 10:00 p.m. the following day; and a final administration at 11:00 a.m. two days following the single 5-FU injection. Each treatment was given orally in a volume of 0.2 ml water (by gavage), except the highest dose of TAU which was administered in 0.4 ml of water.
On days seven and eleven following 5-FU administration, blood (0.2–0.3 ml) was collected from seven mice in each group by retro-orbital bleeding into EDTA for subsequent differential blood cell counting. Mice were sacrificed by cervical dislocation; their right femurs removed and the contents expelled for cell counting; and their spleens removed and weighed.

[2] = system: hematopoietic system (AZT toxicity); assay: Oral TAU vs hematopoietic damage by AZT in drinking water (Example 8); format: in vivo, Balb/C female mice
Protocol: Forty-two Balb/C female mice, each weighing approximately 19 grams, were divided into three different groups of 14 animals each. The three groups were: basal (no AZT, no treatment), control (AZT, water), and TAU (AZT, TAU at 460 mg/kg/treatment). AZT was administered ad libitum in the drinking water at a concentration of 1.5 mg/ml throughout the course of the experiment. The volume of AZT solution consumed in all treatment groups was similar and averaged 2.25 ml per day per mouse, resulting in a daily AZT dose of about 170 mg/kg per day. Water and TAU were administered in a volume of 0.2 mL three times per day for the first 24 days of the study, and twice each day thereafter.
All of the animals were weighed on the day the experiment began, once each week, and immediately prior to sacrifice. After weighing the mice on days 24 and 35, blood (0.2–0.3 ml) was collected from seven mice in each group by retro-orbital bleeding into EDTA for subsequent differential blood cell counting, including reticulocytes. Mice were then sacrificed by cervical dislocation; their right femurs removed and the contents expelled for cell counting; and their spleens removed and weighed.

[3] = system: hematopoietic system (AZT toxicity); assay: Oral TAU vs hematopoietic damage by i.p. AZT (Example 9); format: in vivo, female Balb/C mice
Protocol: AZT (100 mg/kg i.p.) was given three times daily at 9 a.m., 4 p.m., and at 10 p.m. to fifty-six female Balb/C mice weighing approximately 19 grams each. Three times each day, at 9 a.m., 4 p.m., and 10 p.m., animals were treated with either water (control) or TAU at doses of 230, 460, or 920 mg/kg/treatment by oral intubation. Treatment volume was 0.2 ml for the control and TAU 460 groups, 0.1 ml for the TAU 230 group, and 0.4 ml for the TAU 920 group. One additional group of fourteen mice was not given AZT or any treatments (basal).
All of the animals were weighed on the day the experiment began, on day six and on day 13. After weighing the mice on days six and thirteen blood (0.2–0.3 ml) was collected from seven mice in each group by retro-orbital bleeding into EDTA for subsequent differential blood cell counting, including reticulocytes. Mice were then sacrificed by cervical dislocation; their right femurs removed and the contents expelled for cell counting; and their spleens removed and weighed.

[4] = seven days after 5-FU, oral TAU 100 mg/kg/treatment
[5] = seven days after 5-FU, oral TAU 250 mg/kg/treatment
[6] = seven days after 5-FU, oral TAU 500 mg/kg/treatment
[7] = seven days after 5-FU, oral TAU 1000 mg/kg/treatment
[8] = day 24, AZT in drinking water + oral TAU 460 mg/kg/treatment
[9] = day 35, AZT in drinking water + oral TAU 460 mg/kg/treatment
[10] = day 13, AZT i.p. + oral TAU 460 mg/kg/treatment

CC(=O)OC[C@H]1O[C@@H](n2ccc(=O)[nH]c2=O)[C@H](OC(C)=O)[C@@H]1OC(C)=O [TAU, triacetyluridine]
Total neutrophil counts vs control ([1]; day eleven after 5-FU, TAU 250, 500, and 1,000 groups): significantly greater than control values | Spleen weight ([1]; day eleven after 5-FU, TAU 250 group): 104.2 ± 3.5 mg | Red blood cell counts ([1]; day eleven after 5-FU, TAU 500 group): 8.72±0.18 ×10^6 per microliter | Red blood cell counts ([1]; day eleven after 5-FU, TAU 1000 group): 8.63±0.16 ×10^6 per microliter | Total neutrophil counts, fold of controls ([1]; day seven after 5-FU, TAU 1,000 group): approximately three-fold | HCT (11d) ([1]; T100): 36.80 | HCT (11d) ([1]; T250): 37.47 ± .83 | HCT (11d) ([1]; T500): 41.16 ± .88 | HCT (11d) ([1]; T1000): 41.55 ± .77 | Marrow ([1]; seven days after 5-FU 150 mg/kg i.p., oral TAU 100 mg/kg/treatment): 1.77 ± .18 | HCT (7d) ([1]; seven days after 5-FU, T100): 37.77 | HCT (7d) ([1]; seven days after 5-FU, T250): 40.04 ± .38 | HCT (7d) ([1]; seven days after 5-FU, T500): 39.50 ± .61 | HCT (7d) ([1]; seven days after 5-FU, T1000): 40.84 ± .68 | Lym [1, 4]: 2.46 ± .04 K/μl | Neut [1, 4]: .014 ± .008 K/μl | PLT [1, 4]: 440 ± 46 K/μl | RBC [1, 4]: 8.20 ± .07 M/μl | WBC [1, 4]: 2.47 ± .04 K/μl | Lym [1, 5]: 2.71 ± .20 K/μl | Marrow [1, 5]: 2.91 ± .48 | Neut [1, 5]: .027 ± .012 K/μl | PLT [1, 5]: 601 ± 46 K/μl | RBC [1, 5]: 8.51 ± .06 M/μl | WBC [1, 5]: 2.76 ± .20 K/μl | Lym [1, 6]: 3.99 ± .15 K/μl | Marrow [1, 6]: 3.93 ± .39 | Neut [1, 6]: .037 ± .020 K/μl | PLT [1, 6]: 712 ± 42 K/μl | RBC [1, 6]: 8.43 ± .16 M/μl | WBC [1, 6]: 4.06 ± .14 K/μl | Lym [1, 7]: 3.44 ± .23 K/μl | Marrow [1, 7]: 4.42 ± .34 | Neut [1, 7]: .071 ± .027 K/μl | PLT [1, 7]: 715 ± 35 K/μl | RBC [1, 7]: 8.65 ± .15 M/μl | WBC [1, 7]: 3.57 ± .25 K/μl | Body weights ([2]; day 7, AZT […] in drinking water + oral TAU 460 mg/kg/treatment): 19.51±0.38 grams | RBC counts [2, 8]: 9.01±0.09 | Total neutrophil counts [2, 8]: 0.91±0.06 | HCT [2, 9]: 41.26 ± .62 percentage | HGB [2, 9]: 15.14 ± .12 gm/dl | MCH (mean cell hematocrit) [2, 9]: 18.49 ± .28 picograms | MCV [2, 9]: 50.41 ± .48 fL | PLT [2, 9]: 809 ± 06 K/μl | RBC [2, 9]: 8.20 ± .20 M/μl | reticulocyte levels [2, 9]: 0.371 ×10^6 per microliter | HCT [3, 10]: 40.83 ± 0.37% | HGB [3, 10]: 14.54 ± G/dL | Lymph. [3, 10]: 6.06 ± 0.38 K/μl | Neutro. [3, 10]: 0.62 ± 0.03 K/μl | Platelets [3, 10]: 863 ± 26 K/μl | RBC [3, 10]: 8.58 ± M/μl | Retic. [3, 10]: 0.162 ± 0.014 M/μl | WBC [3, 10]: 7.0 ± K/μl | bone marrow cellularity ([3]; day six, AZT 100 mg/kg i.p. three times daily + oral TAU 230 mg/kg): 8.89±0.46 | RBC levels ([3]; day six, AZT i.p. + oral TAU 460 mg/kg/treatment): 9.15±0.07 ×10^6 per microliter | WBC counts ([3]; day six, AZT i.p. + oral TAU 920 mg/kg): 8.46±0.63 ×10^3 per microliter
